ChEMBL document CHEMBL1201862, “PubChem BioAssay data set” (2004)
“And” between values parts separate entries of the source, which are not always exact repeats. Equal entries are not always repeated. The source made the active and inactive calls.

Tests used:
[1] = Luminescence Cell-Based Dose Confirmation HTS to Identify Inhibitors of Platelet Dense Granule Release. [Related pubchem assays: 1663 (Primary HTS), 1678 (Summary of Project)]; assay type: functional
[2] = target: Luciferin 4-monooxygenase (Photinus pyralis, UniProt P08659); test: inhibition of purified Photinus pyralis luciferase – biochemical, luminescence, dose response (AID 1891)
Luciferin 4-monooxygenase, sequence (P08659 whole entry): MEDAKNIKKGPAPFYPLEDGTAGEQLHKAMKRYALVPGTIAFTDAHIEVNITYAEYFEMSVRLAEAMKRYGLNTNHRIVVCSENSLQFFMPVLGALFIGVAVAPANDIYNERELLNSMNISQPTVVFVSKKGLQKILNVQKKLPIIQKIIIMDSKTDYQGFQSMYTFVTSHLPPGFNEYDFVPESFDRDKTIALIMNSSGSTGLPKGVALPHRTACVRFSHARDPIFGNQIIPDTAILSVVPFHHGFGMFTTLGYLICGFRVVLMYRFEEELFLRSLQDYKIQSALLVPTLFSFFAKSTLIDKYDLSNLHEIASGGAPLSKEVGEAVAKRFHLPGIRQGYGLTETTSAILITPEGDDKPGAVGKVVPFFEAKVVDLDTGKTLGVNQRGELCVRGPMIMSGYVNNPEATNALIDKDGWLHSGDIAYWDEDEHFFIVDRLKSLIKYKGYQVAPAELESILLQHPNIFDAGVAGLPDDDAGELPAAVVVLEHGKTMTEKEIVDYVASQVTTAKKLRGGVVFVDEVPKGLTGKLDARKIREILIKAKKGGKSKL

[3] = target: Cytochrome P450 3A4 (Homo sapiens, UniProt P08684);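 also: CYP3A4 tested as one member of a cytochrome P450 panel screen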
Cytochrome P450 3A4, sequence (P08684 whole entry): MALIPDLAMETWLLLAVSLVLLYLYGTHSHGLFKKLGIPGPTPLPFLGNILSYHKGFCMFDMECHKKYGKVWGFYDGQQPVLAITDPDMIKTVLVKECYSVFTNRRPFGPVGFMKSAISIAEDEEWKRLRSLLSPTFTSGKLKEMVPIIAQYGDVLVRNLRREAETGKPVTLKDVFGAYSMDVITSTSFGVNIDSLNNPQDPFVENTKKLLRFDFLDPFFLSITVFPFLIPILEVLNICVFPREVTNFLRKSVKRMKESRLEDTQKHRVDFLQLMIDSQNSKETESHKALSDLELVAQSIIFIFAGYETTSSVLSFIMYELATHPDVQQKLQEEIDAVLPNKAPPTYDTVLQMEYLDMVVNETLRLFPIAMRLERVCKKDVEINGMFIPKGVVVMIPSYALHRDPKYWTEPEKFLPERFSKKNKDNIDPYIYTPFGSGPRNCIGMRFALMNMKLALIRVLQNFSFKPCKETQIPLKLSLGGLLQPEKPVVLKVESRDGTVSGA

[4] = test system: Streptococcus sp. 'group A'; test: Streptococcus pyogenes SK(-)GAS viability under kanamycin – luminescence, BacTiterGlo, confirmation, counter-screen for streptokinase expression inhibitor project, dose response (AID 1900); assay type: functional, organism-based
[5] = test system: Streptococcus; test: GAS UMAA2166 growth inhibition – luminescence, BacTiterGlo, counter-screen for streptokinase expression inhibitor project, dose response (AID 1915); assay type: functional, organism-based;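 also: potency for reduction of bacterial viability or growth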
[6] = target: T1, Streptokinase A (Streptococcus pyogenes serotype M1, UniProt P10520); test: viability-normalized secreted streptokinase activity reduction – plasminogen activation absorbance, OD405, dose response (AID 1914); assay type: functional, Streptococcus pyogenes M1 GAS;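 also: secreted streptokinase activity via plasminogen activation per viability signal from cell pellet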
T1 sequence (P10520 whole entry): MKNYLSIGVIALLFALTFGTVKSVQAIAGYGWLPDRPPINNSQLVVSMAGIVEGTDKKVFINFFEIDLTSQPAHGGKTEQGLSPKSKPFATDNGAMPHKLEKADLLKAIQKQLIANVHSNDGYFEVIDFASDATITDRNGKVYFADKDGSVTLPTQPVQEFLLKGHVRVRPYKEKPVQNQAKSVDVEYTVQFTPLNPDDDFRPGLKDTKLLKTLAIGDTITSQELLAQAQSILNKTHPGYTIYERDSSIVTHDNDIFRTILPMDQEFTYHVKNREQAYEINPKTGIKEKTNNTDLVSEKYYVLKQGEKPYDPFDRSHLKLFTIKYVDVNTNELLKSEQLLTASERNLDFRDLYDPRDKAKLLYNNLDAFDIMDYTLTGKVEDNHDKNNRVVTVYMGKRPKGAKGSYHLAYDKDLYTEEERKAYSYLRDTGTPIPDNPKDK

[7] = target: Cytochrome P450 2C9 (Homo sapiens, UniProt P11712)
Cytochrome P450 2C9, sequence (P11712 whole entry): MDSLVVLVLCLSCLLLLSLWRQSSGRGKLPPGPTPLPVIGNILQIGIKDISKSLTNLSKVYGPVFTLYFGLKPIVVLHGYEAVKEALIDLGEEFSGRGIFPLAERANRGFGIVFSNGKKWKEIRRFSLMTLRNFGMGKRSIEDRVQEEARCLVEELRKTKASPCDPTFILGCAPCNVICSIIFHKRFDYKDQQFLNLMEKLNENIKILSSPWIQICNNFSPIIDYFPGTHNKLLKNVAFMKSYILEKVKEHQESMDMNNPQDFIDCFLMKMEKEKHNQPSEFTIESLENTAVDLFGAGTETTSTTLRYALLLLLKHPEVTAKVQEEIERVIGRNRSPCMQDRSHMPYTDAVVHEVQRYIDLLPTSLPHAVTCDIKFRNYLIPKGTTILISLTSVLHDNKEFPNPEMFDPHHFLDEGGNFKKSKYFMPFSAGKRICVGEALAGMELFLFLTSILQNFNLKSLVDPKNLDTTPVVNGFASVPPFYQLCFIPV

[8] = target: Cytochrome P450 2C19 (Homo sapiens, UniProt P33261); test: Cytochrome panel assay with activity outcomes. Panel member name: p450-cyp2c19 Compounds with AC50 equal or less than 10 uM are considered active; assay type: functional
Cytochrome P450 2C19, sequence (P33261 whole entry): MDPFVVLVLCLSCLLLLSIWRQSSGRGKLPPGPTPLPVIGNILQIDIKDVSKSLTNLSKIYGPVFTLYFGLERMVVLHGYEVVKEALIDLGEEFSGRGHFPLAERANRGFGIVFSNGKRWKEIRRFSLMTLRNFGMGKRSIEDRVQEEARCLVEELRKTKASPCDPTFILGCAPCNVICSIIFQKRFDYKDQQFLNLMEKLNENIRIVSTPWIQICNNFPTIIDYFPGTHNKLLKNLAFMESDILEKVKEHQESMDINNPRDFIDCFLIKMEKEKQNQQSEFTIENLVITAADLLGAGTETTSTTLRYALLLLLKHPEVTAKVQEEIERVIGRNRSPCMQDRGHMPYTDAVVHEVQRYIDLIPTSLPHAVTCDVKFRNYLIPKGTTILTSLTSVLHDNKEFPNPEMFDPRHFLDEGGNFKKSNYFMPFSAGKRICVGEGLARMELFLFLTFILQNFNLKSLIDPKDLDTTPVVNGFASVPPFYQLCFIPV

[9] = test system: INS1; test: INS-1E survival protection against cytokine death – cell-based, luminescence, retest, dose response (AID 449756); assay type: functional; details: Rattus norvegicus;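 also: cell death triggered by IL-1 beta plus TNF-alpha plus IFN-gamma mixture; protective hits raise ATP signal compared with cytokine alone wells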
[10] = target: T2, Corticotropin-releasing factor receptor 2/Corticotropin-releasing factor-binding protein (Homo sapiens, UniProt P24387+Q13324); test: activators of CRF receptor 2 with binding protein – uHTS hits, confirmation (AID 602473); assay type: functional; details: read-out: EC50_Mean
T2 sequence (Q13324 whole entry): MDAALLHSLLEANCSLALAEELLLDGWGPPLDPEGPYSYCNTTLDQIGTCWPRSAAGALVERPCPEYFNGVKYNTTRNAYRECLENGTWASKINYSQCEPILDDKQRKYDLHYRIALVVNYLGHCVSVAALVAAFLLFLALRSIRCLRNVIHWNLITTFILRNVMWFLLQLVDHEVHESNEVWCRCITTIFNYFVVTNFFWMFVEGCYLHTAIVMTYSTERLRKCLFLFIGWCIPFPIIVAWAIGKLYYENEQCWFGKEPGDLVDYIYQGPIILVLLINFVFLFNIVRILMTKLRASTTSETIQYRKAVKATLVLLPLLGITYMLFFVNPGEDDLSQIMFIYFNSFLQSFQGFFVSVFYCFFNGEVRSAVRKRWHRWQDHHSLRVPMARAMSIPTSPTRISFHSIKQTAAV
T2 sequence (P24387 whole entry): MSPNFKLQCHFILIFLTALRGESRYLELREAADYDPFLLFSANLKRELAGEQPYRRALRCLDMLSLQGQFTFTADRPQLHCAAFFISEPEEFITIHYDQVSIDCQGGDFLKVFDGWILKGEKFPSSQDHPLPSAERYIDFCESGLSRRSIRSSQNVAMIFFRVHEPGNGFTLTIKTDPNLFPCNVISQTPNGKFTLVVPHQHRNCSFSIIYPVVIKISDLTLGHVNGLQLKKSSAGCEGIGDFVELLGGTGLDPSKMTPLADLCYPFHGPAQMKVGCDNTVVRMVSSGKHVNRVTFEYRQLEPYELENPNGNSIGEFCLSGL

[11] = target: Cytochrome P450 2D6 (Homo sapiens, UniProt P10635);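 also: CYP2D6 member of a cytochrome P450 panel assay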
Cytochrome P450 2D6, sequence (P10635 whole entry): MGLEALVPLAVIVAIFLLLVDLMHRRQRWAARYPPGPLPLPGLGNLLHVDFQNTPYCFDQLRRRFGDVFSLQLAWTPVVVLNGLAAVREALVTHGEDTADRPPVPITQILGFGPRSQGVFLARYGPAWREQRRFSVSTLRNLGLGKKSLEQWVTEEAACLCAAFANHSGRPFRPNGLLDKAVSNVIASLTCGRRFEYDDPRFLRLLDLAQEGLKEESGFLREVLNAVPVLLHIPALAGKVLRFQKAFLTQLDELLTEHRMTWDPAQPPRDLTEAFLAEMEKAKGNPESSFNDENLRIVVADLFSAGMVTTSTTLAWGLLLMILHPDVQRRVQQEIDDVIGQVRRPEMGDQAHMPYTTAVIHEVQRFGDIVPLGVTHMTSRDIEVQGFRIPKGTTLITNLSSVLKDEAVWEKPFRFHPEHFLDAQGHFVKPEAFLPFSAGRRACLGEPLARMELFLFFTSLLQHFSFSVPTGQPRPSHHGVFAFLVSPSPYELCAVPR

[12] = NIH3T3 cell viability loss – ATP luminescence, mouse fibroblasts, counter-screen, dose response (AID 2010); assay type: functional, cell-based;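 also: cells exposed to compound for about 90 hours before reading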
[13] = Trypanosoma cruzi growth suppression in host cells – NIH3T3 host cells, beta-gal luminescence, confirmation (AID 2044); assay type: functional, cell-based;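 also: intracellular parasites grown in NIH/3T3 mouse fibroblasts as host cells; luminescent beta-galactosidase reporter signal from transgenic T. cruzi replicating inside host cells; inhibitors lower the luminescence signal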

Cc1ccc(/C=C/C(=O)Nc2ccccc2C(N)=O)cc1
EC50 [1]: 22.3 µM (active)
EC50 [2]: 3.26 µM (active)

CCCC[P+](CCCC)(CCCC)Cc1ccc(NC(=O)[C@@H](Cc2ccc3ccccc3c2)N=C(NC2CCCCC2)NC2CCCCC2)cc1
AC50 [3]: 25.1 µM (inconclusive)

CCCCNC(=O)c1onc(CSc2ccc(C(C)C)cc2)c1C(=O)O
EC50 [4]: 3.81 µM (active)
EC50 [5]: > 150 µM (not active)
EC50 [6]: 2.28 µM (active)

COc1ccc2[nH]cc(CCNc3ccnc(-c4ccoc4)n3)c2c1
AC50 [7]: 0.794 µM (inconclusive)

O=c1[nH]c(=S)[nH]nc1Cc1ccccc1
AC50 [7]: 39.8 µM (inconclusive)
AC50 [8]: inconclusive

O=C(CSc1nnc(NC(=O)c2cccc(F)c2)s1)NCC1CCCO1 (configuration not stated)
EC50 [4]: > 150 µM (not active)
EC50 [5]: > 150 µM (not active)
EC50 [6]: > 150 µM (not active)

COc1ccc(C2/C=C\CN(C(=O)C3CC3)[C@H](Cc3ccccc3)C(=O)N2Cc2ccc(F)cc2)cc1 (some centres not stated)
AC50 [9]: 13.5 µM (active)

CN=C(S)NNC(=O)c1sccc1OCc1ccc(C)cc1
AC50 [3]: 15.8 µM (inconclusive)

O=C(Nc1nc(-c2ccccc2)cs1)c1ccc(Br)o1
AC50 [7]: 11.2 µM (inconclusive)
AC50 [3]: 31.6 µM (inconclusive)

CCOP(=O)(Cc1ccc(C(=O)CC)o1)OCC
EC50 [4]: > 150 µM (not active)
EC50 [5]: > 150 µM (not active)
EC50 [6]: > 150 µM (not active)

CC(=O)Nc1ccc(N2C(=O)CSC2c2c(F)cccc2Cl)cc1 (configuration not stated)
AC50 [3]: 22.4 µM (inconclusive)
AC50 ([8]; read-out: AC50): 39.8 µM (inconclusive)

CCCCNC(=O)C(=O)NC(C)CCc1ccccc1 (configuration not stated)
AC50 [7]: 17.8 µM (inconclusive)

COc1cccc([C@@H]2Oc3ccc(Br)cc3C(=O)[C@H]2O)c1
AC50 [3]: 6.31 µM (inconclusive)

CCOC(=O)c1c(-c2ccc(C)o2)csc1NC(=O)COC(=O)c1ccc(NC(N)=O)cc1
EC50 [4]: 1.75 µM (active)
EC50 [5]: 68 µM (active)
EC50 [6]: 49.5 µM (active)

COc1cc(C[C@H](C)N)c(OC)cc1I
AC50 [3]: 1.58 µM (inconclusive) and 31.6 µM (inconclusive)

CCc1cc2c(COC(=O)c3cccc(NS(C)(=O)=O)c3)cc(=O)oc2cc1O
EC50 [4]: 6.8 µM (active)
EC50 [5]: 100 µM (active)
EC50 [6]: > 150 µM (not active)

CCCn1nc2cc(C(=O)NCCc3ccc(C)cc3)ccc2c1OCC
AC50 [7]: 39.8 µM (inconclusive)

CCOC(=O)C1CCCN(c2ncnc3c2cnn3-c2ccc(Cl)cc2)C1 (configuration not stated)
AC50 [3]: 25.1 µM (inconclusive)
EC50 [10]: > 53 µM (inactive)
AC50 ([8]; read-out: AC50): 22.4 µM (inconclusive)

O=C1NC(=O)/C(=C\c2ccc(OCc3ccccc3)cc2)S1
EC50 [4]: 52.8 µM (active)
EC50 [5]: > 150 µM (not active)
EC50 [6]: > 50 µM (not active)

Cc1ccc(S(=O)(=O)N2CCCCC2)cc1NC(=O)CN1C(=O)CN(C)C1=O
EC50 [4]: > 150 µM (not active)
EC50 [5]: > 150 µM (not active)
EC50 [6]: > 150 µM (not active)

Cc1cc(N)ccc1NC(=O)c1ccccc1
AC50 [7]: 0.0224 µM (inconclusive)
AC50 ([8]; read-out: AC50): 20 µM (inconclusive)

CN(C)C(=O)c1ccc(-c2cncnc2-n2ccnc2)cc1
AC50 [11]: 25.1 µM (inconclusive)
AC50 [3]: 10 µM (inconclusive)

COc1ccc(-c2nc3cnc(OC)nc3n(Cc3cccs3)c2=O)cc1
AC50 [11]: 7.94 µM (inconclusive)
AC50 [7]: 5.01 µM (inconclusive)

CCN(CC)S(=O)(=O)c1ccc2c(c1)nc(CCC(=O)O)n2C
EC50 [1]: > 112 µM (not active)
EC50 [2]: > 112 µM (not active)

CCn1cc(CN2CCC(n3nccc3NC(=O)Cc3ccccc3)CC2)cn1
EC50 [4]: > 150 µM (not active)
EC50 [5]: > 150 µM (not active)
EC50 [6]: > 150 µM (not active)

Cc1cc(C)c(S(=O)(=O)N2CCCCC2)c(C)c1N(C)S(=O)(=O)c1ccccc1
AC50 [3]: 1.12 µM (inconclusive)

Cc1c(NC(=O)/C=C/C(=O)O)cccc1[N+](=O)[O-]
AC50 [7]: 28.2 µM (inconclusive)
AC50 ([8]; read-out: AC50): 15.8 µM (inconclusive)

Cc1noc(C)c1C(=O)Nc1ccc2ccccc2c1
EC50 [4]: > 150 µM (not active)
EC50 [5]: > 150 µM (not active)
EC50 [6]: > 150 µM (not active)

c1ccc(-n2c3ccccc3c3ccccc32)cc1
EC50 [4]: 6.43 µM (active)
EC50 [5]: > 150 µM (not active)
EC50 [6]: > 150 µM (not active)

O=C(NCC(=O)N(c1ccccc1)C(C(=O)NC1CCCC1)c1cccnc1)c1cccs1 (configuration not stated)
AC50 [7]: 17.8 µM (inconclusive)
AC50 ([8]; read-out: AC50): 15.8 µM (inconclusive)

CCN(CC)CCn1c(=S)[nH]c2cc3c(cc2c1=O)OCO3
AC50 [3]: 14.1 µM (inconclusive)
AC50 ([8]; read-out: AC50): 39.8 µM (inconclusive)

c1ccc(Nc2nc(-c3ccoc3)nc3ccccc23)cc1
AC50 [11]: 39.8 µM (inconclusive)
AC50 [3]: 20 µM (inconclusive)
AC50 ([8]; read-out: AC50): 31.6 µM (inconclusive)

O=C(NNC1=Nc2cccc3cccc1c23)c1ccc(Br)cc1
EC50 [4]: 0.324 µM (active)
EC50 [12]: 6.29 µM (active)
EC50 [13]: 1.12 µM (active)
EC50 [5]: 10.6 µM (active)
EC50 [6]: > 150 µM (not active)

CN(Cc1ccco1)c1nc(-c2cccc(C#N)c2)nc2ccccc12
AC50 [7]: 1 µM (inconclusive)

COc1ccc(S(=O)(=O)Nc2ccc3oc(C)c(C(C)=O)c3c2)cc1
AC50 [9]: 6.13 µM (active)

Cc1cccc(C)c1NC(=O)C(c1ccccc1)N1CCC1=O (configuration not stated)
AC50 [3]: 25.1 µM (inconclusive)
AC50 ([8]; read-out: AC50): 20 µM (inconclusive)

Cc1ccc(OCC(O)CNC(=O)c2ccccc2C(=O)O)cc1 (configuration not stated)
AC50 [7]: 0.00562 µM (inconclusive)

O=C(CCCc1nc(-c2ccc(Cl)cc2)no1)NC1CCCC1
AC50 [9]: 10.2 µM (active)

Cc1ccc(CNC(=O)C2CCC(=O)N2C2CCCCC2)cc1 (configuration not stated)
AC50 [7]: 7.08 µM (inconclusive)

CCCN1CCc2cc(O)cc3c2[C@H]1Cc1ccc(O)c(O)c1-3
AC50 [11]: 15.8 µM (inconclusive)
AC50 [7]: 39.8 µM (inconclusive)

Oc1oc(-c2ccccc2)nc1/C=N/c1ccccc1
AC50 [3]: 25.1 µM (inconclusive)

COc1cccc(/C=N/NC(=O)C(=O)N/N=C/c2cccc(OC)c2OC)c1OC
EC50 [1]: > 112 µM (not active)
EC50 [2]: > 112 µM (not active)

Cc1cccc(CNc2ncnc3ccc(-c4ccc(C(=O)N(C)C)cc4)cc23)c1
AC50 [11]: 25.1 µM (inconclusive)
AC50 [7]: 0.794 µM (inconclusive)
AC50 ([8]; read-out: AC50): 39.8 µM (inconclusive)
